Assay results from patent US20120172351A1, “NOVEL FUSED CYCLIC COMPOUND AND USE THEREOF” (priority 2009, published 2012).

These molecules were tested against T1, human derived GPR40 (Homo sapiens, UniProt O14842) (assay: Agonist action on human derived GPR40: change of intracellular calcium concentration in CHO cells (FLIPRtetra)). Details: agonist activity of compound at 1 μM, relative to 10 μM γ linolenic acid as 100%, wave peak height; CHO cells stably expressing human GPR40.
T1 construct: expressed in transfected cells
Type: cell-based
Protocol: The CHO cell lines that stably expressed human derived GPR40 were used for the determination of the agonist activity. Unless particularly specified, the CHO cell lines were cultured in an α-MEM medium (Wako Pure Chemical Industries, Ltd.) containing 10% dialyzed fetal bovine serum (TRA Thermo Electron).
The cells cultured almost to confluent on the day before assay were rinsed with PBS (Invitrogen), detached with 0.5 mM EDTA (Wako Pure Chemical Industries, Ltd.), and recovered by centrifugation. The obtained cells were counted, diluted to 2×10^5 cells per 1 mL medium, dispensed by 40 μL per well to a 384 well black clear bottomplate (PE Biosystems), and cultured overnight in a CO2 incubator. Various test compounds were added to CHO cells prepared as mentioned above, and change of intracellular calcium concentration was measured using FLIPRtetra (Molecular Device). For the measurement by this device, a Calcium 4 assay kit (Molecular Devices: R8142) was used.
First, fatty acid free BSA at the final concentration of 0.1% was added to the buffer attached to the kit to prepare an assay buffer. Using the assay buffer, a loading solution with Fluo4 was prepared such that the final concentration of fatty acid free BSA was 0.1% and the final concentration of probenecid was 625 μM. On the other hand, a test compound was diluted with the assay buffer to a given concentration, and dispensed to the polypropylene 384-well plate (sample plate). The medium was removed from the cell culture plate, and the loading solution with Fluo4 was dispensed by 25 μL. After culture in a CO2 incubator at 37° C. for 40 min, a sample plate and a cell plate were simultaneously set on the FLIPRtetra, various test compounds were added by 25 μL according to the program of the device, and change of intracellular calcium concentration was measured. The agonist activity of each compound at 1 μM was calculated as a relative activity value to the activity of 10 μM γ linolenic acid as 100% from the wave peak height.

T1 sequence (O14842 whole entry): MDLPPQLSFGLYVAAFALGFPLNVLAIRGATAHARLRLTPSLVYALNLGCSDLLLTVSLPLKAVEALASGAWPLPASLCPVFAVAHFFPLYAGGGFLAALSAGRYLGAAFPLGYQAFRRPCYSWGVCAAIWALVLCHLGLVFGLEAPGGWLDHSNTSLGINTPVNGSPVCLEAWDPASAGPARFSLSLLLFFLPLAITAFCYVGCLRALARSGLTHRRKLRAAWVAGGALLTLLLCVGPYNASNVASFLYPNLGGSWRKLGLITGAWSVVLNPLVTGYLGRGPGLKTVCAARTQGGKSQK

| activity (%) | Structure (SMILES) |
| --- | --- |
| 111% | Cc1c(CNc2ccc3c(c2)OC[C@H]3CC(=O)O)cccc1-n1c(C)nc2c(C)cccc21 [Example 153, [(3S)-6-{[3-(2,4-dimethyl-1H-benzimidazol-1-yl)-2-methylbenzyl]amino}-2,3-dihydro-1-benzofuran-3-yl]acetic acid] |
| 125% | CCOc1nc2c(OCC(F)(F)F)cccc2n1-c1cccc(CNc2ccc3c(c2)OC[C@H]3CC(=O)O)c1C [Example 180, [(3S)-6-({3-[2-ethoxy-4-(2,2,2-trifluoroethoxy)-1H-benzimidazol-1-yl]-2-methylbenzyl}amino)-2,3-dihydro-1-benzofuran-3-yl]acetic acid] |
| 124% | Cc1nc2ccccn2c1-c1cccc(CNc2ccc3c(c2)OC[C@H]3CC(=O)O)c1C [Example 201, [(3S)-6-{[2-methyl-3-(2-methylimidazo[1,2-a]pyridin-3-yl)benzyl]amino}-2,3-dihydro-1-benzofuran-3-yl]acetic acid] |
| 121% | COc1ccc(-c2c(C(F)(F)F)ccc(CNc3ccc4c(c3)OC[C@H]4CC(=O)O)c2C)cn1 [Example 207, [(3S)-6-{[3-(6-methoxypyridin-3-yl)-2-methyl-4-(trifluoromethyl)benzyl]amino}-2,3-dihydro-1-benzofuran-3-yl]acetic acid] |
| 125% | Cc1ccc(CNc2ccc3c(c2)OC[C@H]3CC(=O)O)c(C)c1-c1ccc2nc(C(F)(F)F)cn2c1 [Example 219, [(3S)-6-({2,4-dimethyl-3-[2-(trifluoromethyl)imidazo[1,2-a]pyridin-6-yl]benzyl}amino)-2,3-dihydro-1-benzofuran-3-yl]acetic acid] |
| 126% | Cc1oc2cccnc2c1-c1cccc(CNc2ccc3c(c2)OC[C@H]3CC(=O)O)c1C [Example 221, [(3S)-6-{[2-methyl-3-(2-methylfuro[3,2-b]pyridin-3-yl)benzyl]amino}-2,3-dihydro-1-benzofuran-3-yl]acetic acid] |
| 111% | Cc1oc2ncccc2c1-c1cccc(CNc2ccc3c(c2)OC[C@H]3CC(=O)O)c1C [Example 223, [(3S)-6-{[2-methyl-3-(2-methylfuro[2,3-b]pyridin-3-yl)benzyl]amino}-2,3-dihydro-1-benzofuran-3-yl]acetic acid] |
| 105% | CCOc1nc2ccc(F)cc2n1-c1cccc2c1CCC2Nc1ccc2c(c1)OC[C@H]2CC(=O)[O-].[Na+] (stereo partly drawn) [Example 227, sodium [(3S)-6-{[4-(2-ethoxy-6-fluoro-1H-benzimidazol-1-yl)-2,3-dihydro-1H-inden-1-yl]amino}-2,3-dihydro-1-benzofuran-3-yl]acetate] |
| 121% | CCCN(c1ccc(F)cn1)c1cccc(CNc2ccc3c(c2)OC[C@H]3CC(=O)O)c1C [Example 232, [(3S)-6-({3-[(5-fluoropyridin-2-yl)(propyl)amino]-2-methylbenzyl}amino)-2,3-dihydro-1-benzofuran-3-yl]acetic acid] |
| 121% | Cc1nc(N2CCOCC2)nc(C)c1-c1cccc(CNc2ccc3c(c2)OC[C@H]3CC(=O)O)c1C [Example 242, 1,3-dihydroxy-2-(hydroxymethyl)propan-2-aminium [(3S)-6-({3[4,6-dimethyl-2-(morpholin-4-yl)pyrimidin-5-yl]-2-methylbenzyl}amino)-2,3-dihydro-1-benzofuran-3-yl]acetate] |

Continued, molecule first:

| Structure (SMILES) | activity (%) |
| --- | --- |
| Cc1cc(-c2cccc3c2OC[C@H]3Nc2ccc3c(c2)OC[C@H]3CC(=O)O)c(C)s1 [Example 3, [(3S)-6-{[(3S)-7-(2,5-dimethylthiophen-3-yl)-2,3-dihydro-1-benzofuran-3-yl]amino}-2,3-dihydro-1-benzofuran-3-yl]acetic acid] | 128% |
| CCc1nc2ccccc2n1-c1cccc2c1OC[C@H]2Nc1ccc2c(c1)OC[C@H]2CC(=O)[O-].[Na+] [Example 19, sodium [(3S)-6-{[(3S)-7-(2-ethyl-1H-benzimidazol-1-yl)-2,3-dihydro-1-benzofuran-3-yl]amino}-2,3-dihydro-1-benzofuran-3-yl]acetate] | 129% |
| CCOc1nc2ccc(F)cc2n1-c1cccc2c1OC[C@H]2Nc1ccc2c(c1)OC[C@H]2CC(=O)[O-].[Na+] [Example 25, sodium [(3S)-6-{[(3S)-7-(2-ethoxy-6-fluoro-1H-benzimidazol-1-yl)-2,3-dihydro-1-benzofuran-3-yl]amino}-2,3-dihydro-1-benzofuran-3-yl]acetate] | 129% |
| CCc1nc2ccc(F)c(F)c2n1-c1cccc2c1OC[C@H]2Nc1ccc2c(c1)OC[C@H]2CC(=O)[O-].[Na+] [Example 31, sodium [(3S)-6-{[(3S)-7-(2-ethyl-6,7-difluoro-1H-benzimidazol-1-yl)-2,3-dihydro-1-benzofuran-3-yl]amino}-2,3-dihydro-1-benzofuran-3-yl]acetate] | 127% |
| CCOc1nc2c(F)cc(F)cc2n1-c1cccc2c1OC[C@H]2Nc1ccc2c(c1)OC[C@H]2CC(=O)[O-].[Na+] [Example 37, sodium [(3S)-6-{[(3S)-7-(2-ethoxy-4,6-difluoro-1H-benzimidazol-1-yl)-2,3-dihydro-1-benzofuran-3-yl]amino}-2,3-dihydro-1-benzofuran-3-yl]acetate] | 117% |
| Cc1nn(C(F)F)c(C)c1-c1cccc2c1OCC2Nc1ccc2c(c1)OC[C@H]2CC(=O)O (stereo partly drawn) [Example 67, [(3S)-6-({7-[1-(difluoromethyl)-3,5-dimethyl-1H-pyrazol-4-yl]-2,3-dihydro-1-benzofuran-3-yl}amino)-2,3-dihydro-1-benzofuran-3-yl]acetic acid] | 111% |
| Cc1nc(N2CCOCC2)nc(C)c1-c1cccc2c1OC[C@H]2Nc1ccc2c(c1)OC[C@H]2CC(=O)O [Example 77-2, [(3S)-6-({(3S)-7-[4,6-dimethyl-2-(morpholin-4-yl)pyrimidin-5-yl]-2,3-dihydro-1-benzofuran-3-yl}amino)-2,3-dihydro-1-benzofuran-3-yl]acetic acid] | 132% |
| O=C([O-])C[C@@H]1COc2cc(N[C@@H]3COc4c3cccc4N3CCOc4ccccc43)ccc21.[Na+] [Example 86, sodium [(3S)-6-{[(3S)-7-(2,3-dihydro-4H-1,4-benzooxazin-4-yl)-2,3-dihydro-1-benzofuran-3-yl]amino}-2,3-dihydro-1-benzofuran-3-yl]acetate] | 128% |
| CCN(c1ccc(C#N)cc1F)c1cccc2c1OC[C@H]2Nc1ccc2c(c1)OC[C@H]2CC(=O)O [Example 89, [(3S)-6-({(3S)-7-[(4-cyano-2-fluorophenyl)(ethyl)amino]-2,3-dihydro-1-benzofuran-3-yl}amino)-2,3-dihydro-1-benzofuran-3-yl]acetic acid] | 129% |
| Cc1nc2ccc(OCC(F)(F)F)cc2n1-c1cccc2c1OC[C@H]2Nc1ccc2c(c1)OC[C@H]2CC(=O)[O-].[Na+] [Example 99, sodium [(3S)-6-({(3S)-7-[2-methyl-6-(2,2,2-trifluoroethoxy)-1H-benzimidazol-1-yl]-2,3-dihydro-1-benzofuran-3-yl}amino)-2,3-dihydro-1-benzofuran-3-yl]acetate] | 123% |
| Cc1nn(C(F)F)c(C)c1-c1cccc(CNc2ccc3c(c2)OC[C@H]3CC(=O)O)c1C [Example 109, [(3S)-6-({3-[1-(difluoromethyl)-3,5-dimethyl-1H-pyrazol-4-yl]-2-methylbenzyl}amino)-2,3-dihydro-1-benzofuran-3-yl]acetic acid] | 122% |
| Cc1nc(OC(F)F)nc(C)c1-c1cccc(CNc2ccc3c(c2)OC[C@H]3CC(=O)O)c1C [Example 114, [(3S)-6-({3-[2-(difluoromethoxy)-4,6-dimethylpyrimidin-5-yl]-2-methylbenzyl}amino)-2,3-dihydro-1-benzofuran-3-yl]acetic acid] | 132% |
| Cc1cc(-c2cccc(CNc3ccc4c(c3)OC[C@H]4CC(=O)O)c2F)c(C)s1 [Example 121, [(3S)-6-{[3-(2,5-dimethylthiophen-3-yl)-2-fluorobenzyl]amino}-2,3-dihydro-1-benzofuran-3-yl]acetic acid] | 129% |
| Cc1c(CNc2ccc3c(c2)OC[C@H]3CC(=O)O)cccc1-n1c(C)nc2cc(C(F)(F)F)ccc21 [Example 131, [(3S)-6-({2-methyl-3-[2-methyl-5-(trifluoromethyl)-1H-benzimidazol-1-yl]benzyl}amino)-2,3-dihydro-1-benzofuran-3-yl]acetic acid] | 129% |
| COc1ccc2c(c1)nc(C1CC1)n2-c1cccc(CNc2ccc3c(c2)OC[C@H]3CC(=O)O)c1C [Example 149, [(3S)-6-{[3-(2-cyclopropyl-5-methoxy-1H-benzimidazol-1-yl)-2-methylbenzyl]amino}-2,3-dihydro-1-benzofuran-3-yl]acetic acid] | 90% |
| CCc1nc2ccc(Cl)cc2n1-c1cccc(CNc2ccc3c(c2)OC[C@H]3CC(=O)[O-])c1C.[Na+] [Example 173, sodium [(3S)-6-{[3-(6-chloro-2-ethyl-1H-benzimidazol-1-yl)-2-methylbenzyl]amino}-2,3-dihydro-1-benzofuran-3-yl]acetate] | 121% |
